Measured values taken from patent US12384797B2, “Thioeno[3,2-b] pyridin-7-amine compounds for treating familial dysautonomia” (PTC THERAPEUTICS, INC., priority 2019, dated 2025).

tested on: Elongator complex protein 1 (ELP1, also referred to as IKBKAP); test: IKBKAP-HTRF assay (IKBKAP protein in lysates of FD patient-derived fibroblasts); assay type: cell-based, human; settings: 48 hours incubation, 7-point concentration curve
Experimental: The assay is used for the quantitative determination of Elongator complex protein 1 (ELP1, also referred to as IKBKAP) concentration in cell lysates using the HTRF® (Homogeneous Time-Resolved Fluorescence) technology. IKBKAP is detected in a sandwich HTRF assay by use of an anti-IKAP antibody labeled with a donor and an anti-IKAP antibody labeled with an acceptor.
Cells were thawed and incubated in DMEM-10% FBS for 72 hours. Cells were trypsinized, counted, and re-suspended to a concentration of 50,000 cells/mL in DMEM-10% FBS. A 199 μL aliquot of the cell suspensions were plated at 10,000 cells per well in a 96 well microtiter plate and incubated for 3 to 5 hours. […] Test compounds were serially diluted 3.16-fold in 100% DMSO to generate a 7-point concentration curve. A 1 μL aliquot of 200× compound solution was transferred to cell-containing wells, and cells were incubated for 48 hours in a cell culture incubator (37° C., 5% CO2, 100% relative humidity). Triplicate samples were set up for each compound concentration. After 48 hours, the supernatant was removed from the cells and 50 μL of the 1×LB4 lysis buffer, containing protease inhibitors, was added to the cells and incubated with shaking at room temperature for 1 hour. A 36 μL aliquot of this lysate was subsequently transferred to the 384-well plate containing 4 μL of the antibody solution (1:50 dilution of anti IKAP d2 and anti-IKAP K(9+8) in detection buffer). The 384-well plate was then centrifuged for 1 minute to bring the solutions to the bottom of the plate and incubated overnight at 4° C. Fluorescence for each well of the plate at 665 nm and 620 nm was measured was on the EnVision plate reader (Perkin Elmer). The ΔF for each sample is calculated by:
[formula] wherein Signal is the normalized fluorescence for each sample well and Blank is the average normalized average fluorescence for the Blank control wells.
The maximum fold increase (MFI) in IKBKAP protein abundance for compounds of Formula (I) or a form thereof relative to the vehicle control are provided in Table 1. MFI was calculated by dividing the ΔF value for each sample well by the sample ΔF for the vehicle control wells.
The EC2x for IKBKAP protein expression obtained from the 7-point concentration curve generated for each test compound according to the protocol in Biological Example 1 are also provided in Table 1. The term “EC2x for IKBKAP protein expression” is defined as the concentration of test compound that is effective in producing two times the amount of IKBKAP protein in a FD patient cell compared to the amount produced from the DMSO vehicle control.

Compound	EC2x for IKBKAP protein expression (concentration producing two times the amount of IKBKAP protein vs DMSO vehicle control)	MFI (maximum fold increase in IKBKAP protein abundance relative to the vehicle control)
2-[(2R)-2-amino-3-fluoropropyl]-5-chloro-3-cyclopropyl-N-[(thiophen-2-yl)methyl]thieno[3,2-b]pyridin-7-amine [Compound 77]	*** (between >0.02 μM and ≤0.5 μM is indicated by three stars (***))	**** (between >3.9 and ≤4.9 is indicated by four stars (****))
2-[(2R)-2-amino-3-fluoropropyl]-5-chloro-3-methyl-N-[(1,3-thiazol-2-yl)methyl]thieno[3,2-b]pyridin-7-amine [Compound 69]	***** (≤0.005 μM is indicated by five stars (*****))	***** (>4.9 is indicated by five stars (*****))
2-[(2S)-2-amino-4-methylpentyl]-5-chloro-3-cyclopropyl-N-[(1,3-thiazol-2-yl)methyl]thieno[3,2-b]pyridin-7-amine [Compound 80]	*** (between >0.02 μM and ≤0.5 μM is indicated by three stars (***))	*** (between >2.9 and ≤3.9 is indicated by three stars (***))
2-[(2S)-2-aminobutyl]-5-chloro-3-cyclopropyl-N-[(1,3-thiazol-2-yl)methyl]thieno[3,2-b]pyridin-7-amine [Compound 86]	*** (between >0.02 μM and ≤0.5 μM is indicated by three stars (***))	**** (between >3.9 and ≤4.9 is indicated by four stars (****))
2-[(2S)-2-aminobutyl]-5-chloro-3-cyclopropyl-N-[(thiophen-2-yl)methyl]thieno[3,2-b]pyridin-7-amine [Compound 75]	*** (between >0.02 μM and ≤0.5 μM is indicated by three stars (***))	***** (>4.9 is indicated by five stars (*****))
Clc1cc(NCc2ccco2)c2sccc2n1 [Compound 1, 5-chloro-N-[(furan-2-yl)methyl]thieno[3,2-b]pyridin-7-amine]	* (An EC2x>1 μM is indicated by one star (*))	*** (between >2.9 and ≤3.9 is indicated by three stars (***))
Cc1csc2c(NCc3ccco3)cc(Cl)nc12 [Compound 2, 5-chloro-N-[(furan-2-yl)methyl]-3-methylthieno[3,2-b]pyridin-7-amine]	*** (between >0.02 μM and ≤0.5 μM is indicated by three stars (***))	***** (>4.9 is indicated by five stars (*****))
Cc1c(C(C)O)sc2c(NCc3ccco3)cc(Cl)nc12 (stereo not shown) [Compound 3, 1-(5-chloro-7-{[(furan-2-yl)methyl]amino}-3-methylthieno[3,2-b]pyridin-2-yl)ethan-1-ol]	*** (between >0.02 μM and ≤0.5 μM is indicated by three stars (***))	*** (between >2.9 and ≤3.9 is indicated by three stars (***))
CC(O)c1cc2nc(Cl)cc(NCc3ccco3)c2s1 (stereo not shown) [Compound 4, 1-(5-chloro-7-{[(furan-2-yl)methyl]amino}thieno[3,2-b]pyridin-2-yl)ethan-1-ol]	* (An EC2x>1 μM is indicated by one star (*))	** (between >1.9 and ≤2.9 is indicated by two stars (**))
OCc1cc2nc(Cl)cc(NCc3ccco3)c2s1 [Compound 5, (5-chloro-7-{[(furan-2-yl)methyl]amino}thieno[3,2-b]pyridin-2-yl)methanol]	* (An EC2x>1 μM is indicated by one star (*))	* (An MFI≤1.9 is indicated by one star (*))
Clc1cc(NCc2ccco2)c2scc(Cl)c2n1 [Compound 6, 3,5-dichloro-N-[(furan-2-yl)methyl]thieno[3,2-b]pyridin-7-amine]	*** (between >0.02 μM and ≤0.5 μM is indicated by three stars (***))	***** (>4.9 is indicated by five stars (*****))
Clc1cc(NCc2ccco2)c2scc(Br)c2n1 [Compound 7, 3-bromo-5-chloro-N-[(furan-2-yl)methyl]thieno[3,2-b]pyridin-7-amine]	*** (between >0.02 μM and ≤0.5 μM is indicated by three stars (***))	***** (>4.9 is indicated by five stars (*****))
Clc1cc(NCc2nccs2)c2scc(Cl)c2n1 [Compound 8, 3,5-dichloro-N-[(1,3-thiazol-2-yl)methyl]thieno[3,2-b]pyridin-7-amine]	*** (between >0.02 μM and ≤0.5 μM is indicated by three stars (***))	***** (>4.9 is indicated by five stars (*****))
Clc1cc(NCc2nccs2)c2scc(Br)c2n1 [Compound 9, 3-bromo-5-chloro-N-[(1,3-thiazol-2-yl)methyl]thieno[3,2-b]pyridin-7-amine]	*** (between >0.02 μM and ≤0.5 μM is indicated by three stars (***))	***** (>4.9 is indicated by five stars (*****))
Cc1cc(NCc2nccs2)c2scc(Cl)c2n1 [Compound 10, 3-chloro-5-methyl-N-[(1,3-thiazol-2-yl)methyl]thieno[3,2-b]pyridin-7-amine]	* (An EC2x>1 μM is indicated by one star (*))	* (An MFI≤1.9 is indicated by one star (*))
N#Cc1cc(NCc2cccs2)c2scc(Br)c2n1 [Compound 11, 3-bromo-7-{[(thiophen-2-yl)methyl]amino}thieno[3,2-b]pyridine-5-carbonitrile]	*** (between >0.02 μM and ≤0.5 μM is indicated by three stars (***))	** (between >1.9 and ≤2.9 is indicated by two stars (**))
N#Cc1cc(NCc2cccs2)c2scc(C#N)c2n1 [Compound 12, 7-{[(thiophen-2-yl)methyl]amino}thieno[3,2-b]pyridine-3,5-dicarbonitrile]	*** (between >0.02 μM and ≤0.5 μM is indicated by three stars (***))	** (between >1.9 and ≤2.9 is indicated by two stars (**))
